One may read the inhibition as the share of the control response that was lost under treatment.

Assay [1] deals with FLNA pentapeptide of SEQ ID NO: 1 (Bn-VAKGL) (Homo sapiens, UniProt P21333). Nature of the assay: FITC-NLX-based FLNA screening assay (inhibition of FITC-naloxone binding to Bn-VAKGL on streptavidin plates). The conditions noted are these: 10 nM FITC-NLX.
Assay [2] relates to mu opiate receptor (MOR). Nature of the assay: MOR agonist activity using [35S]GTPγS binding assay in striatal membranes. Type of assay: biochemical. In outline: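 Striatal membranes (200 μg) were preincubated 5 min at 30 °C in HEPES pH 7.5 with 100 mM NaCl, 1 mM MgCl2 and 0.5 nM [35S]GTPγS, then 5 min more with 0.1–10 μM compound. Gαo was immunoprecipitated and bound radioactivity counted by scintillation.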
For orientation: GTPγS is a poorly hydrolysed GTP analogue; its binding reports G protein activation.

The mark [3] stands for this setting: read-out: Percent Binding Inhibition, FLNA-binding compound 0.01 μM.
Setting [4] is: read-out: Percent Binding Inhibition, FLNA-binding compound 0.1 μM.
Where [5] appears, read: read-out: Percent Binding Inhibition, FLNA-binding compound 1 μM.
[6] abbreviates: FLNA-binding compound 0.01 μM, read-out: Percent Binding Inhibition.
Where [7] appears, read: FLNA-binding compound 0.1 μM, read-out: Percent Binding Inhibition.
[8] abbreviates: FLNA-binding compound 1 μM, read-out: Percent Binding Inhibition.
Where [9] appears, read: Series C-1, 0.1 μM compound, relative to DAMGO.
Where [10] appears, read: Series C-1, 0.1 μM compound, [35S]GTPγS binding to Gαo, striatal membranes.
[11] abbreviates: Series C-1, 1 μM compound + 1 μM β-FNA.
Setting [12] is: Series C-1, 1 μM compound + β-FNA, relative to DAMGO + BFNA.
[13] abbreviates: Series C-1, 1 μM compound, relative to DAMGO.
Setting [14] is: Series C-1, 1 μM compound, [35S]GTPγS binding to Gαo, striatal membranes.
Setting [15] is: Series C-2, 0.1 μM compound, relative to DAMGO.
[16] abbreviates: Series C-2, 0.1 μM compound, [35S]GTPγS binding to Gαo, striatal membranes.
The mark [17] stands for this setting: Series C-2, 1 μM compound + 1 μM β-FNA.
The mark [18] stands for this setting: Series C-2, 1 μM compound + β-FNA, relative to DAMGO + BFNA.
[19] abbreviates: Series C-2, 1 μM compound, relative to DAMGO.
[20] abbreviates: Series C-2, 1 μM compound, [35S]GTPγS binding to Gαo, striatal membranes.

Read-outs that look alike come from different tables or passages of the source.

Regarding `CC1CN(CC(O)COc2ccc(Br)c(F)c2)CC(C)O1` (stereo not drawn) [Compound A0041], the inhibition at 0.01 µM in assay [1] (setting [3]) was determined as 45.8%. Moreover, the inhibition at 0.1 µM in assay [1] (setting [4]) amounted to 51.7%. In assay [1] (setting [5]), the inhibition at 1 µM came out at 56.9%. In assay [2] (0.1 μM compound), the “MOR agonist activity ([35S]GTPγS binding), FLNA-Binding Compound as Agonist 0.1 μM” value stood at 212.7%. Further, the “% DAMGO (0.1 μM)” value in assay [2] (0.1 μM compound relative to DAMGO) came out at 108.4%. Also, the “MOR agonist activity ([35S]GTPγS binding), FLNA-Binding Compound as Agonist 1 μM” value in assay [2] (1 μM compound) is reported as 283.6%. Also, the “MOR agonist activity ([35S]GTPγS binding), FLNA-Binding Compound as Agonist 1 μM + BFNA” value in assay [2] (1 μM compound + 1 μM β-funaltrexamine) came out at 50.6%. In addition, the “% DAMGO + BFNA” value in assay [2] (1 μM compound + BFNA relative to DAMGO + BFNA) turned out to be 68.5%. Further, the “% DAMGO (1 μM)” value in assay [2] (1 μM compound relative to DAMGO) was 102.8%.

For the compound `O=C(OCc1ccccc1)c1ccc(S(=O)(=O)N2CCC3(CC2)OCCN3S(=O)(=O)c2ccc(C(=O)OCc3ccccc3)cc2)cc1` [Compound C0042], in assay [1] (setting [6]), the inhibition at 0.01 µM worked out at 42.4%. Besides, the inhibition at 0.1 µM in assay [1] (setting [7]) amounted to 49.7%. Besides, the inhibition at 1 µM in assay [1] (setting [8]) was 56.1%. Also, the “% DAMGO (0.1 μM)” value in assay [2] (setting [9]) is on record as 98.9%. In addition, the “Concentration of FLNA-Binding Compound as Agonist 0.1 μM” value (from here on “Concentration … as Agonist 0.1 μM”) in assay [2] (setting [10]) is recorded as 167.1%. Moreover, in assay [2] (setting [11]), the “Concentration of FLNA-Binding Compound as Agonist 1 μM + BFNA” value (“Concentration … as Agonist 1 μM + BFNA” below) is recorded as 110.6%. In addition, in assay [2] (setting [12]), the “% DAMGO + BFNA” value was found to be 666.3%. For the same compound, the “% DAMGO (1 μM)” value in assay [2] (setting [13]) is given as 119.2%. In assay [2] (setting [14]), the “Concentration of FLNA-Binding Compound as Agonist 1 μM” value turned out to be 260.9%.

On to `COc1ccc(S(=O)(=O)N2CCC3(CC2)OCCN3S(=O)(=O)c2ccc(C(C)=O)cc2)cc1` [Compound C0048], for which the inhibition at 0.01 µM in assay [1] (setting [3]) was 28.5%. Further, the inhibition at 0.1 µM in assay [1] (setting [4]) was 38.9%. The inhibition at 1 µM in assay [1] (setting [5]) came out at 45.9%. Further, the “% DAMGO (0.1 μM)” value in assay [2] (setting [9]) amounted to 144.2%. In assay [2] (setting [10]), the “Concentration … as Agonist 0.1 μM” value was 209.1%. Further, in assay [2] (setting [11]), the “Concentration … as Agonist 1 μM + BFNA” value is 89.9%. The “% DAMGO + BFNA” value in assay [2] (setting [12]) came out at 204.3%. Further, the “% DAMGO (1 μM)” value in assay [2] (setting [13]) worked out at 105.3%. Further, the “Concentration of FLNA-Binding Compound as Agonist 1 μM” value in assay [2] (setting [14]) stood at 245.3%.

As for `CC(=O)c1ccc(S(=O)(=O)N2CC(=O)NC23CCNCC3)cc1` [Compound C0086M], in assay [1] (setting [3]), the inhibition at 0.01 µM stood at 37.9%. In addition, in assay [1] (setting [4]), the inhibition at 0.1 µM was determined as 48.1%. Further, in assay [1] (setting [5]), the inhibition at 1 µM came out at 53.4%. Further, the “% DAMGO (0.1 μM)” value in assay [2] (setting [15]) amounted to 117.5%. Further, the entries for the “MOR agonist activity, percent [35S]GTPγS binding at the stated compound concentration” value (“MOR agonist activity, percent” below) in assay [2] (setting [16]), in assay [2] (setting [17]) and in assay [2] (setting [20]) were 206.8%, 152.3% and 265.3%, respectively. The “% DAMGO + BFNA” value in assay [2] (setting [18]) is given as 692.3%. The “% DAMGO (1 μM)” value in assay [2] (setting [19]) worked out at 104.9%.

For the compound `O=C1CN(C2CCc3ccccc3C2)C2(CCN(S(=O)(=O)c3ccccc3)CC2)N1` (stereo not drawn) [C0136M(P5)], in assay [1] (setting [3]), the inhibition at 0.01 µM is 46.7%. For the same compound, in assay [1] (setting [4]), the inhibition at 0.1 µM is 55.2%. Moreover, the inhibition at 1 µM in assay [1] (setting [5]) amounted to 58.2%. Moreover, the “% DAMGO (0.1 μM)” value in assay [2] (setting [15]) was determined as 93.4%. The “MOR agonist activity, percent” value in assay [2] (setting [16]) was found to be 176.8%; in assay [2] (setting [17]), 74.5%; in assay [2] (setting [20]) it was 237.3%. For the same compound, the “% DAMGO + BFNA” value in assay [2] (setting [18]) stood at 153.6%. Also, the “% DAMGO (1 μM)” value in assay [2] (setting [19]) is reported as 95.6%.

For the compound `O=S(=O)(c1ccc(F)cc1)N1CCC2(CC1)OCCN2S(=O)(=O)c1ccc(F)cc1` [Compound C0029], the inhibition at 0.01 µM in assay [1] (setting [3]) turned out to be 38.6%. For the same compound, in assay [1] (setting [4]), the inhibition at 0.1 µM was 43.2%. The inhibition at 1 µM in assay [1] (setting [5]) worked out at 50.5%. For the same compound, in assay [2] (setting [9]), the “% DAMGO (0.1 μM)” value turned out to be 91.2%. Moreover, in assay [2] (setting [10]), the “Concentration … as Agonist 0.1 μM” value amounted to 175.4%. Further, in assay [2] (setting [11]), the “Concentration … as Agonist 1 μM + BFNA” value turned out to be 16.6%. The “% DAMGO + BFNA” value in assay [2] (setting [12]) is 37.8%. Also, the “% DAMGO (1 μM)” value in assay [2] (setting [13]) was found to be 113.1%. In addition, in assay [2] (setting [14]), the “Concentration of FLNA-Binding Compound as Agonist 1 μM” value is 308.8%.

Take `CS(=O)(=O)c1ccc(S(=O)(=O)N2CCOC23CCN(CC2CC2)CC3)cc1` [Compound C0126M]: the inhibition at 0.01 µM in assay [1] (setting [6]) worked out at 50.7%. In assay [1] (setting [7]), the inhibition at 0.1 µM stood at 55.4%. In assay [1] (setting [8]), the inhibition at 1 µM amounted to 67.3%. Moreover, the “% DAMGO (0.1 μM)” value in assay [2] (setting [15]) came to 108.5%. Moreover, the “MOR agonist activity, percent” value stood at 181.8% in assay [2] (setting [16]), 108.5% in assay [2] (setting [17]) and 265.3% in assay [2] (setting [20]). Besides, the “% DAMGO + BFNA” value in assay [2] (setting [18]) came out at 228.4%. In addition, the “% DAMGO (1 μM)” value in assay [2] (setting [19]) turned out to be 119.3%.
